The record followed here is patent US20070224194A1, “Methods for Inhibiting Angiogenesis and/or Lymphangiogenesis” (LUDWIG INSTITUTE FOR CANCER RESEARCH, priority 2004, published 2007).

The test system of test [1] is proteolytic processing of VEGF-DΔN. Briefly: Processing of VEGF-DΔN by 293EBNA cells (cleavage of C-terminal propeptide from VHD). To be noted: for band representing mature VHD from VEGF-DΔN: 1, 10, 50, 100 μM, 18 hours. In kind it is cell-based, human. The text has this: An expression plasmid encoding a truncated derivative of human VEGF-D consisting of the N-terminal propeptide and the VHD tagged at the carboxyl terminus with the FLAG epitope (referred to as VEGF-DΔC) (FIG. 3, top panel) has been previously described (Stacker et al, J. Biol. Chem. 274 32127-32136, 1999). The VEGF-DΔC protein construct facilitates study of cleavage of the N-terminal propeptide from the VHD. The conditioned media of 293EBNA cells stably transfected with the VEGF-DΔC expression plasmid contain a mixture of VEGF-D proteins, including unprocessed VEGF-DΔC, and the proteolytically processed VHD. A second cell line was generated by stable transfection of 293EBNA cells with an expression construct encoding VEGF-DΔN, a truncated derivative of human VEGF-D consisting of the VHD tagged at the amino terminus with the FLAG epitope and C-terminal propeptide (FIG. 3, top panel). This protein construct facilitates study of cleavage of the C-terminal propeptide from the VHD. The conditioned media of 293EBNA cells expressing VEGF-DΔN contain a mixture of VEGF-D proteins, consisting of unprocessed VEGF-DΔN, and the proteolytically processed VHD. The VEGF-DΔN expression plasmid was constructed by replacing the 2-kb EcoRV fragment of the pAPEX-3 construct for full-length VEGF-D with the 2-kb EcoRV fragment of the pAPEX-3 construct for VEGF-DΔNΔC-FLAG (Stacker et al, J. Biol. Chem. 274 32127-32136, 1999).
The 293EBNA cell lines expressing VEGF-D-FULL-FLAG, VEGF-DΔC or VEGF-DΔN were seeded into 24-well plates (8×10^4 cells/well), in medium supplemented with Dec-RVKR-CMK dissolved in methanol, to a final concentration of 0, 1, 10, 50 or 100 μM. After 18 hours incubation (37° C., 10% CO2 in an humidified incubator), conditioned cell culture media were removed and clarified by centrifugation (5 minutes, 250×g, 4° C.). […] The precipitated VEGF-D species were then analysed by reducing SDS-PAGE and Western blotting using a biotinylated antibody against the VHD of human VEGF-D (R&D Systems), and Streptavidin-horse radish peroxidase conjugate (Zymed).

In test [2] the test system is BaF3 cells expressing the VEGFR-2/EpoR chimeric receptor. Put plainly: BaF3 bioassay, VEGFR-2/EpoR chimeric receptor, [3H]thymidine incorporation. It is filed as cell-based. The note with it: paper example in present tense. The text has this:
(§1) In order to test if a furin or broad-range PC inhibitor can block the biological effects of VEGF-D, mammalian cells are employed that proteolytically process VEGF-D, such as 293EBNA or Capan-1 pancreatic carcinoma cells. Derivatives of these cells harboring an expression construct for full-length VEGF-D are transfected with the shRNA construct for furin (as described here) or treated with a broad-range PC inhibitor such as decanoyl-Arg-Val-Lys-Arg-chloromethylketone (see, PCT WO 2005/112971 A1, the disclosure of which is incorporated herein by reference in its entirety). The inhibition of VEGF-D processing by these agents is confirmed by immunoprecipitation/Western blotting of the conditioned cell culture media using antibody that binds the VHD of VEGF-D. The conditioned cell culture media from cells treated with the inhibitors (and from cells in which these agents are omitted, i.e. “mock” treatments) are used for incubations with BaF3 pre-B cells expressing chimeric receptors consisting of the extracellular domains of VEGFR-2 or VEGFR-3 and the transmembrane and cytoplasmic domains of the erythropoietin receptor (EpoR) (Stacker et al., J. Biol. Chem., 274:34884-34892, 1999; Achen et al., Eur. J. Biochem., 267:2505-2515, 2000). […] The proliferation of the cells in response to the conditioned media containing VEGF-D is monitored by incorporation of [3H]thymidine into DNA. […]
Background: Incorporation of labelled thymidine or its analogues reports DNA synthesis.

Test [3] relates to BaF3 cells expressing the VEGFR-3/EpoR chimeric receptor. Put plainly: BaF3 bioassay, VEGFR-3/EpoR chimeric receptor, [3H]thymidine incorporation. In kind it is cell-based. To be noted: paper example in present tense.
Text: as §1

The star is where a group is joined. Decanoyl = CCCCCCCCCC(=O)*; CH2Cl = ClC*

With “Decanoyl-Arg-Val-Lys-Arg-chloromethylketone (Decanoyl-RVKR-CH2Cl) [Dec-RVKR-CMK]”, the “proteolytic processing of VEGF-DΔN” value in test [1] (100 μM) is given as “completely blocked”. The “band representing mature VHD from VEGF-DΔN” value in test [1] is given as “reduced in abundance in a dose dependent manner”; in test [1] (listed as dec-RVKR-CMK), “blocked each of these processing events in a dose-dependent fashion”. The “proliferation of BaF3 VEGFR-2/EpoR cells induced by conditioned media of treated VEGF-D-expressing cells” value in test [2] is on record as “do not induce significant proliferation”. The “proliferation of BaF3 VEGFR-3/EpoR cells induced by conditioned media of treated VEGF-D-expressing cells” value in test [3] is reported as “do not induce significant proliferation”.
